Among the test systems are SF-539 CNS; NCI/ADR-RES ovarian; HOP-92 NSCLC; OVCAR-3 ovarian; SK-MEL-28 melanoma; HL-60(TB) leukemia; NCI-H226 lung; OVCAR-4 ovarian; M14 melanoma; 786-0 renal.
Test in all cases: growth of human tumour cells (NCI), 48 h

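These data come from cells grown in 96-well plates and exposed to compound for 48 hours at five concentrations. GI50 is the concentration that inhibits growth by half. At the TGI there is no net growth.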

This is an account of results in PubChem BioAssay (NCI).

As to `O=C(Nc1ccccc1F)c1ccc(NC2=C(Cl)C(=O)N(Cc3ccccc3)C2=O)cc1`, the GI50 in the experiment with SF-539 CNS was 6.18 µM; in the experiment on NCI/ADR-RES ovarian, 11.5 µM; with HOP-92 NSCLC it was 1.91 µM; in the experiment on OVCAR-3 ovarian, 1.68 µM; with SK-MEL-28 melanoma, 3.88 µM; in the experiment with HL-60(TB) leukemia, 1.72 µM. Moreover, the GI50 in the experiment on NCI-H226 lung is 11.2 µM; in the experiment on OVCAR-4 ovarian, 11.1 µM; in the experiment on M14 melanoma it was 4.02 µM; in the experiment on 786-0 renal, 14 µM. The TGI with SF-539 CNS was found to be 18 µM; with NCI/ADR-RES ovarian, 23.6 µM; in the experiment with HOP-92 NSCLC it was 5.03 µM; with OVCAR-3 ovarian, 3.05 µM; in the experiment with SK-MEL-28 melanoma it was 13.5 µM; with HL-60(TB) leukemia, 3.36 µM. Further, the TGI is 25.2 µM in the experiment on NCI-H226 lung, 23.1 µM in the experiment with OVCAR-4 ovarian, 17 µM with M14 melanoma and 27 µM in the experiment on 786-0 renal.
Regarding `COc1cccc(C2C(C#N)=C(N)Oc3cc(OC)ccc32)c1` (centres undefined), the GI50 in the experiment on SF-539 CNS was 0.0231 µM; with NCI/ADR-RES ovarian, 0.0184 µM; with HOP-92 NSCLC it was 0.0822 µM; in the experiment on OVCAR-3 ovarian it was 0.0244 µM; in the experiment on SK-MEL-28 melanoma it was 0.0577 µM; in the experiment on HL-60(TB) leukemia, 0.0263 µM. For the same compound, the GI50 in the experiment on NCI-H226 lung was 0.896 µM; with OVCAR-4 ovarian it was 1.96 µM; in the experiment with M14 melanoma it was 0.0271 µM; in the experiment on 786-0 renal, 0.0556 µM. The TGI in the experiment with SF-539 CNS was 0.0596 µM; in the experiment with HOP-92 NSCLC, 25.2 µM; in the experiment with OVCAR-3 ovarian, 1.18 µM; with SK-MEL-28 melanoma, above 100 µM; in the experiment with HL-60(TB) leukemia, 0.077 µM; with NCI-H226 lung, above 100 µM. For the same compound, the TGI in the experiment with OVCAR-4 ovarian is above 96.8 µM; in the experiment with M14 melanoma, above 100 µM; in the experiment on 786-0 renal, above 66.8 µM.
As to `COc1ccc2c(c1)C(=O)c1c-2n(CCCCl)c(=O)c2cc(N(C)C)ccc12`, the GI50 in the experiment on SF-539 CNS is 12.4 µM; in the experiment on NCI/ADR-RES ovarian, above 100 µM; in the experiment with HOP-92 NSCLC it was 3.42 µM; in the experiment on OVCAR-3 ovarian, above 100 µM; with SK-MEL-28 melanoma it was above 100 µM; in the experiment with HL-60(TB) leukemia, above 100 µM. For the same compound, the GI50 in the experiment on NCI-H226 lung is 54.7 µM; in the experiment with OVCAR-4 ovarian, 62.9 µM; in the experiment on M14 melanoma it was above 100 µM; with 786-0 renal it was 33.1 µM. Further, the TGI is 47.4 µM in the experiment with SF-539 CNS; above 100 µM in the experiment on NCI/ADR-RES ovarian; 23.4 µM with HOP-92 NSCLC; above 100 µM in the experiment on OVCAR-3 ovarian; above 100 µM in the experiment with SK-MEL-28 melanoma; above 100 µM with HL-60(TB) leukemia. The TGI in the experiment on NCI-H226 lung, in the experiment on OVCAR-4 ovarian, with M14 melanoma and in the experiment with 786-0 renal was above 100 µM each time.
